Laboratory results published in US20230114728A1 (Venatorx Pharmaceuticals, Inc., priority 2019, published 2023).
Converted amounts (≈) assume the structure as drawn.

Key:
[1] = target: T1, E. coli K12 PBP3 (Escherichia coli, UniProt P0AD68); assay: biochemical; type: binding
T1 construct: made in house
Outline: (§1)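 A. baumannii PBP2 (2.5 μM) and PBP3 (0.2 μM) were run in 25 mM Tris pH 8.0 buffer with Tween 20; E. coli PBP3 (1.5 μM) and N. gonorrhoeae PBP2 ([…]) in 50 mM Hepes pH 8.0 buffer.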

[2] = target: T2, N. gonorrhoeae PBP2 (Neisseria gonorrhoeae, UniProt P08149); assay: Bocillin-FL fluorescence polarization competition binding assay, N. gonorrhoeae PBP2; details: fluorescence polarization competition binding assay using Bocillin-FL; read-out: N. gonorrhoeae PBP2 Potency
T2 construct: made in house
Outline: as §1

[3] = target: T3, P. aeruginosa PBP3 (Pseudomonas aeruginosa, UniProt G3XD46); assay: Bocillin-FL fluorescence polarization competition binding assay, P. aeruginosa PBP3; details: fluorescence polarization competition binding assay using Bocillin-FL
T3 construct: made in house
Outline: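 Inhibitor competition with Bocillin-FL for P. aeruginosa PBP3 was followed by fluorescence polarization on a Cytation3 (BioTek) reader, using g-factor 0.96, 490 nm excitation and 520 nm emission. The enzyme was at 0.75 μM and the probe at 0.1 μM in Hepes/NaCl/glycerol buffer, 80 μl per well. FP was recorded immediately after probe addition for up to 60 minutes. Potency was expressed as EC50, the concentration that reduces bound probe by 50%.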

[4] = system: N. gonorrhoeae WHO Q; assay: Liquid broth MIC in Fastidious broth; type: cell-based; details: Neisseria gonorrhoeae, read-out: Minimum Inhibitory Concentration, N. gonorrhoeae WHO Q
Outline: (§2)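 Broth microdilution against gonococcal strains expressing mosaic PBP2, starting inoculum 5×10^5 CFU/mL in Fastidious broth. Incubation runs ~24 h at 36 °C under 5% CO2, with MIC scored visually at <10% of full growth.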

[5] = system: N. gonorrhoeae ATCC 49226; assay: Liquid broth MIC in Fastidious broth; type: cell-based; details: Neisseria gonorrhoeae, ATCC49226; N. gonorrhoeae strain ATCC 49226; Fastidious broth; read-out: Minimum Inhibitory Concentration, N. gonorrhoeae ATCC 49226
Outline: (§3)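 Colonies were swabbed from chocolate agar after 24 h growth and standardised by optical density at 600 nm. Compounds were serially diluted twofold in Fastidious broth, and bacteria added to give 5×10^5 CFU/mL. After about 24 h at 36 °C in 5% CO2, the lowest concentration allowing under 10% growth was taken as MIC.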

[6] = system: N. gonorrhoeae WHO K; assay: Liquid broth MIC in Fastidious broth; type: cell-based; details: Neisseria gonorrhoeae, read-out: Minimum Inhibitory Concentration, N. gonorrhoeae WHO K
Outline: as §2

[7] = system: N. gonorrhoeae WHO G; assay: Liquid broth MIC in Fastidious broth; type: cell-based; details: Neisseria gonorrhoeae; N. gonorrhoeae strain WHO G; Fastidious broth; read-out: Minimum Inhibitory Concentration, N. gonorrhoeae WHO G
Outline: as §3

[8] = system: N. gonorrhoeae WHO L; assay: Liquid broth MIC in Fastidious broth; type: cell-based; details: Neisseria gonorrhoeae; N. gonorrhoeae strain WHO L; Fastidious broth; read-out: Minimum Inhibitory Concentration, N. gonorrhoeae WHO L
Outline: as §3

[9] = system: N. gonorrhoeae FA1090; assay: Liquid broth MIC in Fastidious broth; type: cell-based; details: Neisseria gonorrhoeae; N. gonorrhoeae strain FA1090; Fastidious broth; read-out: Minimum Inhibitory Concentration, N. gonorrhoeae FA1090
Outline: as §3

[10] = system: N. gonorrhoeae WHO Z; assay: Liquid broth MIC in Fastidious broth; type: cell-based; details: Neisseria gonorrhoeae, read-out: Minimum Inhibitory Concentration, N. gonorrhoeae WHO Z
Outline: as §2

T2 sequence (P08149 whole entry): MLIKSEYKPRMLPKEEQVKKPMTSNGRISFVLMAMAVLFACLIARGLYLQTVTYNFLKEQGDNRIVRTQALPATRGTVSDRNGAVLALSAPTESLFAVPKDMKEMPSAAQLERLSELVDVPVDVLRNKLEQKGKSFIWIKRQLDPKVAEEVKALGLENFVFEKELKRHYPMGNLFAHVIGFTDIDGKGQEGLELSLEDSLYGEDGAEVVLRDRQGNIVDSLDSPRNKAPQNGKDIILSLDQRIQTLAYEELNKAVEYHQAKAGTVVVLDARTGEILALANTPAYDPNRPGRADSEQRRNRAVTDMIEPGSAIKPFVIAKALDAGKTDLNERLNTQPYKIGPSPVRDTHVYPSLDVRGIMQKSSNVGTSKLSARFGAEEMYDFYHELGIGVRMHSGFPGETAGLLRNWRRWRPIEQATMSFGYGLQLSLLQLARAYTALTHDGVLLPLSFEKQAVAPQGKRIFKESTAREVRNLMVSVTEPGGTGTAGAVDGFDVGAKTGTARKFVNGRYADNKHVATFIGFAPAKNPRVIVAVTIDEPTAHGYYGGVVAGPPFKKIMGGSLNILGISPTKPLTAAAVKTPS
T3 sequence (G3XD46 whole entry): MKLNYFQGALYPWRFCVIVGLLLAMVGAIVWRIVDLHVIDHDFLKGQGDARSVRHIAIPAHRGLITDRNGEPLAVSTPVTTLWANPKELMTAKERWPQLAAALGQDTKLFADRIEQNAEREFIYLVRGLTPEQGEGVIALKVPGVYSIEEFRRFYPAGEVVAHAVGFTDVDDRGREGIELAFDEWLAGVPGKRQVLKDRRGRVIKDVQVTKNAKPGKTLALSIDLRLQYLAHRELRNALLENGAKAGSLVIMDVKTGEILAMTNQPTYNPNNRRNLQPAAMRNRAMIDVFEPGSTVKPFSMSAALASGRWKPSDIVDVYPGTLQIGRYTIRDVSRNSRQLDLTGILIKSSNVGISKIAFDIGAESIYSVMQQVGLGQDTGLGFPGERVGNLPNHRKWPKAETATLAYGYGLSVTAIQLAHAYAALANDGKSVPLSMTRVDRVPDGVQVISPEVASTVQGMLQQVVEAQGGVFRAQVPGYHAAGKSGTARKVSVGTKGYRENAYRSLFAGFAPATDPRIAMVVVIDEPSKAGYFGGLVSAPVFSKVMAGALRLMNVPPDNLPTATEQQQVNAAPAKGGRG
T1 sequence (P0AD68 1-577): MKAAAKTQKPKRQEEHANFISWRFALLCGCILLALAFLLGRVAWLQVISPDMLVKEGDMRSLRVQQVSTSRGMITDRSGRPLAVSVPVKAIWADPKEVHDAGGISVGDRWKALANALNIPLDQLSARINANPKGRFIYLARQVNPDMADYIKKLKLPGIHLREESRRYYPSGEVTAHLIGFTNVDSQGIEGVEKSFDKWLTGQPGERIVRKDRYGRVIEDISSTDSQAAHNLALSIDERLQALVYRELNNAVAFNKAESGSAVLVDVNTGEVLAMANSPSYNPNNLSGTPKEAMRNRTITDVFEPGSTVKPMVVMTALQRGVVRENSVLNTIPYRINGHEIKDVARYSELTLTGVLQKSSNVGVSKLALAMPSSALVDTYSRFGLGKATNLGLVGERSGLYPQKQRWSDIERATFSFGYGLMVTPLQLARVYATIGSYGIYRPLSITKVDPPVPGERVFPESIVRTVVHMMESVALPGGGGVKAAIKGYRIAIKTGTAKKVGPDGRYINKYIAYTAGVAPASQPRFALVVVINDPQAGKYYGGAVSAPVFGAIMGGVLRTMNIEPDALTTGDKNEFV

| SMILES | EC50 [1] [µM] | EC50 [2] [µM] | P. aeruginosa PBP3 Potency [3] | MIC [4] [µg/mL] | MIC [5] [µg/mL] | MIC [6] [µg/mL] | MIC [7] [µg/mL] | MIC [8] [µg/mL] | MIC [9] [µg/mL] | MIC [10] [µg/mL] |
| --- | --- | --- | --- | --- | --- | --- | --- | --- | --- | --- |
| CCN1CCN(C(=O)N[C@H](C(=O)N[C@H]2Cc3cccc(C(=O)O)c3OB2O)c2ccc(C(=O)O)c(F)c2F)C(=O)C1=O (single isomer, unassigned) [Example 139] | < 30 | < 10 | D (D represents a potency <10 μM) | 4 to 8 (≈ 6.8 to 13.6 µM) | 1 to 2 (≈ 1.7 to 3.4 µM) | 4 to 8 (≈ 6.8 to 13.6 µM) | 1 to 2 (≈ 1.7 to 3.4 µM) | 4 to 8 (≈ 6.8 to 13.6 µM) | < 0.125 | 1 to 2 (≈ 1.7 to 3.4 µM) |
| NCCN1CCN(C(=O)N[C@@H](C(=O)N[C@H]2Cc3ccc(F)c(C(=O)O)c3OB2O)c2cc(F)c(O)c(O)c2Cl)C(=O)C1=O (single isomer, unassigned) [Example 179] | < 30 | > 100 | D (D represents a potency <10 μM) | > 64 | > 64 | > 64 | 16 to 32 (≈ 25.6 to 51.1 µM) | > 64 | 16 to 32 (≈ 25.6 to 51.1 µM) | > 64 |
| NCCN1CCN(C(=O)NC(C(=O)N[C@H]2Cc3cccc(C(=O)O)c3OB2O)c2c(F)c(F)c(O)c(F)c2F)C(=O)C1=O (stereo partly drawn) [Example 174, (3R)-3-(2-(4-(2-aminoethyl)-2,3-dioxopiperazine-1-carboxamido)-2-(2,3,5,6-tetrafluoro-4-hydroxyphenyl)acetamido)-2-hydroxy-3,4-dihydro-2H-benzo[e][1,2]oxaborinine-8-carboxylic acid] | < 30 | < 10 | D (D represents a potency <10 μM) | 16 to 32 (≈ 26.2 to 52.4 µM) | 4 to 8 (≈ 6.54 to 13.1 µM) | > 64 | 1 to 2 (≈ 1.64 to 3.27 µM) | 16 to 32 (≈ 26.2 to 52.4 µM) | 0.25 to 0.5 (≈ 0.409 to 0.818 µM) | 16 to 32 (≈ 26.2 to 52.4 µM) |
| CCN1CCN(C(=O)N[C@@H](C(=O)N[C@H]2Cc3cccc(C(=O)O)c3OB2O)c2ccc(C(=O)O)cc2)C(=O)C1=O (single isomer, unassigned) [Example 124] | < 30 | < 10 | D (D represents a potency <10 μM) | 1 to 2 (≈ 1.81 to 3.62 µM) | 1 to 2 (≈ 1.81 to 3.62 µM) | 4 to 8 (≈ 7.24 to 14.5 µM) | 0.25 to 0.5 (≈ 0.453 to 0.905 µM) | 4 to 8 (≈ 7.24 to 14.5 µM) | < 0.125 | 1 to 2 (≈ 1.81 to 3.62 µM) |
| NCCN1CCN(C(=O)N[C@@H](C(=O)N[C@H]2Cc3cccc(C(=O)O)c3OB2O)c2cc(F)c(O)c(F)c2F)C(=O)C1=O (single isomer, unassigned) [Example 168] | < 30 | < 10 | D (D represents a potency <10 μM) | 16 to 32 (≈ 27 to 53.9 µM) | 4 to 8 (≈ 6.74 to 13.5 µM) | 16 to 32 (≈ 27 to 53.9 µM) | 1 to 2 (≈ 1.69 to 3.37 µM) | 16 to 32 (≈ 27 to 53.9 µM) | 0.25 to 0.5 (≈ 0.421 to 0.843 µM) | 16 to 32 (≈ 27 to 53.9 µM) |
| CCN1CCN(C(=O)N[C@H](C(=O)N[C@H]2Cc3cccc(C(=O)O)c3OB2O)c2cc(F)c(C(=O)O)cc2Cl)C(=O)C1=O (single isomer, unassigned) [Example 149] | 30 to 500 | 30 to 100 | C (C represents a potency between 10 and 30 μM) | > 64 | > 64 | > 64 | 16 to 32 (≈ 26.5 to 52.9 µM) | > 64 | 4 to 8 (≈ 6.61 to 13.2 µM) | 16 to 32 (≈ 26.5 to 52.9 µM) |
| CCN1CCN(C(=O)NC(C(=O)N[C@H]2Cc3cccc(C(=O)O)c3OB2O)c2c(F)cc(NS(N)(=O)=O)cc2F)C(=O)C1=O (stereo partly drawn) [Example 176, (3R)-3-(2-(2,6-difluoro-4-(sulfamoylamino)phenyl)-2-(4-ethyl-2,3-dioxopiperazine-1-carboxamido)acetamido)-2-hydroxy-3,4-dihydro-2H-benzo[e][1,2]oxaborinine-8-carboxylic acid] | < 30 | < 10 | D (D represents a potency <10 μM) | > 64 | 4 to 8 (≈ 6.27 to 12.5 µM) | > 64 | 4 to 8 (≈ 6.27 to 12.5 µM) | > 64 | 0.25 to 0.5 (≈ 0.392 to 0.783 µM) | 16 to 32 (≈ 25.1 to 50.1 µM) |
| NCCCN1CCN(C(=O)NC(C(=O)N[C@H]2Cc3ccc(F)c(C(=O)O)c3OB2O)c2c(F)cc(O)cc2F)C(=O)C1=O (stereo partly drawn) [Example 178, (3R)-3-(2-(4-(3-aminopropyl)-2,3-dioxopiperazine-1-carboxamido)-2-(2,6-difluoro-4-hydroxyphenyl)acetamido)-7-fluoro-2-hydroxy-3,4-dihydro-2H-benzo[e][1,2]oxaborinine-8-carboxylic acid] | < 30 | > 100 | D (D represents a potency <10 μM) | > 64 | 16 to 32 (≈ 26.3 to 52.7 µM) | > 64 | 16 to 32 (≈ 26.3 to 52.7 µM) | > 64 | 4 to 8 (≈ 6.59 to 13.2 µM) | > 64 |
| CCN1CCN(C(=O)N[C@H](C(=O)N[C@H]2Cc3cccc(C(=O)O)c3OB2O)c2ccc(C(=O)O)c(Cl)c2)C(=O)C1=O (single isomer, unassigned) [Example 155] | < 30 | < 10 | D (D represents a potency <10 μM) | 1 to 2 (≈ 1.7 to 3.41 µM) | 1 to 2 (≈ 1.7 to 3.41 µM) | 1 to 2 (≈ 1.7 to 3.41 µM) | 0.25 to 0.5 (≈ 0.426 to 0.852 µM) | 16 to 32 (≈ 27.3 to 54.5 µM) | < 0.125 | 1 to 2 (≈ 1.7 to 3.41 µM) |
| NCCN1CCN(C(=O)N[C@@H](C(=O)N[C@H]2Cc3cccc(C(=O)O)c3OB2O)c2cc(F)c(O)c(F)c2)C(=O)C1=O (single isomer, unassigned) [Example 159] | < 30 | < 10 | D (D represents a potency <10 μM) | > 64 | 16 to 32 (≈ 27.8 to 55.6 µM) | > 64 | 4 to 8 (≈ 6.95 to 13.9 µM) | > 64 | 1 to 2 (≈ 1.74 to 3.48 µM) | > 64 |
| CCN1CCN(C(=O)N[C@H](C(=O)N[C@H]2Cc3cccc(C(=O)O)c3OB2O)c2ccc(C(=O)O)cc2)C(=O)C1=O (single isomer, unassigned) [Example 123] | < 30 | < 10 | D (D represents a potency <10 μM) | 4 to 8 (≈ 7.24 to 14.5 µM) | 4 to 8 (≈ 7.24 to 14.5 µM) | 4 to 8 (≈ 7.24 to 14.5 µM) | 1 to 2 (≈ 1.81 to 3.62 µM) | 16 to 32 (≈ 29 to 57.9 µM) | 0.25 to 0.5 (≈ 0.453 to 0.905 µM) | 1 to 2 (≈ 1.81 to 3.62 µM) |
| CCN1CCN(C(=O)N[C@H](C(=O)N[C@H]2Cc3cccc(C(=O)O)c3OB2O)c2ccc(C(=O)O)c(F)c2)C(=O)C1=O (single isomer, unassigned) [Example 147] | < 30 | < 10 | D (D represents a potency <10 μM) | 0.25 to 0.5 (≈ 0.438 to 0.877 µM) | 1 to 2 (≈ 1.75 to 3.51 µM) | 0.25 to 0.5 (≈ 0.438 to 0.877 µM) | 0.25 to 0.5 (≈ 0.438 to 0.877 µM) | 4 to 8 (≈ 7.01 to 14 µM) | < 0.125 | 0.25 to 0.5 (≈ 0.438 to 0.877 µM) |
| CCN1CCN(C(=O)N[C@@H](C(=O)N[C@H]2Cc3cccc(C(=O)O)c3OB2O)c2ccc(C(=O)O)c(F)c2F)C(=O)C1=O (single isomer, unassigned) [Example 140] | < 30 | < 10 | D (D represents a potency <10 μM) | 1 to 2 (≈ 1.7 to 3.4 µM) | 0.25 to 0.5 (≈ 0.425 to 0.85 µM) | 1 to 2 (≈ 1.7 to 3.4 µM) | 0.25 to 0.5 (≈ 0.425 to 0.85 µM) | 1 to 2 (≈ 1.7 to 3.4 µM) | < 0.125 | 0.25 to 0.5 (≈ 0.425 to 0.85 µM) |
| CCN1CCN(C(=O)N[C@@H](C(=O)N[C@H]2Cc3cccc(C(=O)O)c3OB2O)c2ccc(C(=O)O)cc2Cl)C(=O)C1=O (single isomer, unassigned) [Example 151] | < 30 | < 10 | D (D represents a potency <10 μM) | 4 to 8 (≈ 6.82 to 13.6 µM) | 4 to 8 (≈ 6.82 to 13.6 µM) | 4 to 8 (≈ 6.82 to 13.6 µM) | 1 to 2 (≈ 1.7 to 3.41 µM) | 16 to 32 (≈ 27.3 to 54.5 µM) | 0.25 to 0.5 (≈ 0.426 to 0.852 µM) | 1 to 2 (≈ 1.7 to 3.41 µM) |
